Source: patent US7892354B2, “Process for the parallel detection of crystalline forms of molecular solids” (Solvias AG, priority 2003, dated 2011)
Counter-ions that a name gives are not always drawn.

Experiments:
[1] = Parallel phase equilibrium experiments in suspensions of 32 solvents and solvent mixtures, Raman spectra grouped into classes; assay type: physicochemical; details: 64 experiments, 32 solvents/solvent mixtures; for number of different classes of Raman spectra (ideally corresponding to different solid forms of sertraline HCl): 48 hours shaking, temperature cycled between 18° C. and 28° C., similarity factor 0.5; for occurrence of form II among the solid forms obtained: 48 hours, 18° C. to 28° C., verified against reference spectra, HCl
Method: A reference experiment with the stable form I as starting material is designed in such a way that 64 experiments are carried out for establishing the phase equilibrium in suspensions of 32 different solvents and solvent mixtures. For this purpose, 32 of the vessels in a 96-well quartz microtitre plate are each filled with about 5 mg of sertraline HCl form 1, and 100 microlitres of the corresponding solvent are then introduced into each vessel in accordance with the plan below, and the plate is closed with seals.
The microtitre plate is then shaken on a mechanical shaker (Eppendorf, Thermomixer Comfort) for 48 hours, the temperature of the mechanical shaker being changed cydically between 18° C. and 28° C. A cycle corresponds to one hour. The shaking frequency is 500 per minute. After a time of 48 hours for establishing equilibrium, the microtitre plate is removed from the mechanical shaker and the solid in each of the occupied vessels is investigated directly in the suspension using a Raman microscope (Renishaw Raman microscope system RM 1000). One or two Raman spectra are recorded in each vessel. The solvents in each vessel are then evaporated with the aid of a seal system having flow-through channels according to WO 03/026797 under nitrogen, a flow rate of about 0.03 litre/hour being established. Altogether, 80 Raman spectra are recorded in 64 experiments (32 directly from the suspension and 32 from the dried suspension).
The measured Raman spectra are divided into different classes of spectra on the basis of their differences. A separate evaluation programme which carries out an automatic comparison of measured spectra on the basis of the wave numbers of emission maxima in the Raman spectrum and generates a classification is used for this purpose. A distinguishing criterion is a similarity factor which is determined by visual assessment of selected, individual spectra.
Similarly to the reference example described above, 64 experiments are carried out in 32 different solvents and solvent mixtures in 32 vessels of a 96-well microtitre plate. For this purpose, each of the 32 vessels is occupied with 3 mg of the amorphous form. 100 microlitres of solvent according to the plan given in the comparative example are then filled into each of the 32 vessels, and the plate is closed with seals. The microtitre plate is then shaken on a mechanical shaker (Eppendorf, Thermomixer Comfort), the temperature of the mechanical shaker being changed cyclically between 18° C. and 28° C. A cycle corresponds to one hour, and the shaking frequency is 500 per minute. After a time of 48 hours for establishing the equilibrium, the microtitre plate is removed from the mechanical shaker and the solid in each of the occupied vessels is investigated directly in the suspension using a Raman microscope. One or two Raman spectra are recorded in each vessel. The solvents in each vessel are then evaporated with the aid of a seal system having flow-through channels according to WO 03/026797 under nitrogen, a flow rate of about 0.03 litre per hour being established. Altogether, 92 Raman spectra are recorded in 64 experiments (32 directly from the suspension and 32 from the dried suspension).

[2] = Morisette et al., Advanced Drug Delivery Reviews 56 (2004) 275-300; cited from earlier work

SMILES	number of different classes of Raman spectra (ideally corresponding to different solid forms of sertraline HCl) [1]	occurrence of form II among the solid forms obtained [1]	number of different crystal forms mentioned in the literature [2]
CN[C@H]1CC[C@@H](c2ccc(Cl)c(Cl)c2)c2ccccc21 [sertraline HCl form I, sertraline HCl]	11	the important form II did not form	–
CN[C@H]1CC[C@@H](c2ccc(Cl)c(Cl)c2)c2ccccc21 [amorphous form of sertraline HCl, sertraline HCl]	25	both the thermodynamically stable form I and the important form II are contained in these classes	–
CN[C@H]1CC[C@@H](c2ccc(Cl)c(Cl)c2)c2ccccc21 [isopropanol solvate of sertraline HCl, sertraline HCl]	16	–	–
CN[C@H]1CC[C@@H](c2ccc(Cl)c(Cl)c2)c2ccccc21 [sertraline HCl]	–	–	about 27
